Assay results taken from patent publication US20220098191A1 (priority 2019, published 2022).
Where “and” joins values, the source holds several entries; their conditions need not be identical. Identical values can stand only once.

How the values were obtained:
RAJI (Lymphoma) = assay: MTT in vitro cytotoxicity, 72 hour incubation; assay type: cell-based; details: Homo sapiens, MTT assay, RAJI cells
Description: (§1) The in vitro cytotoxicity of a selection of compounds was determined in a panel of cell lines using the standard MTT assay for a 72 hour incubation period (Table 1).
(§2) Tumor cell lines were maintained in RPMI1640 medium supplemented with 10% heat-inactivated fetal bovine serum, 2 mM L-glutamine and 1 mM sodium pyruvate. 1800 cells per well were seeded in a volume of 180 μl in a 96-well flat bottom polystyrene plate. The cells were allowed to adhere overnight at 37° C. in a CO2 incubator. Ligands were initially formulated in DMSO, and stocks stored at −80° C. They were then further formulated at lox concentration in RPMI1640 medium. 20 μl of diluted samples were added into each treatment well. On each plate, blank wells with no cells, and untreated wells containing cells, were included. Plates were then cultured at 37° C. in a CO2 incubator for 72 hrs. Cytotoxicity was evaluated using a tetrazolium salt-based assay, the MTT assay. After 72 hours, the supernatant was removed from each well and 200 μl of a sterile filtered 500 μg/ml MTT solution in water added to each well. The plates were then incubated at 37° C. in a CO2 incubator for 4 hrs. The supernatant was then removed and the formazan crystals formed solubilized by adding 150 μl of DMSO to each well. The plate was then read on a plate reader at 540 nm, and percentage cell survival calculated as follows: ((mean absorbance treated wells at concentration×−mean absorbance blank wells)÷(mean absorbance untreated wells at concentration×−mean absorbance blank wells))×100. Data were plotted as concentration in nM vs. % cell survival in Microsoft Excel, and IC50 values (concentration where cell survival is reduced by a half) were determined from the graph.

[1] = Hydrophobicity investigation of free payloads by UPLC (hydrophobicity model); assay type: physicochemical; details: for Retention Time (min) seco form / Retention Time (min) spiro form: single runs 1-3 (triplicate), 0.1% TFA water/acetonitrile gradient; for Retention Time (min) seco form, Average: Average of runs, D only in seco form, the others observable as single species
Description: Both mobile phases were filtered through 0.22 μm filters and degassed by sonication under argon. Caffeine (Merck, UPLC grade) was employed a standard. Blank solvent samples (i.e., DMSO) were used during sample runs to confirm lack of carryover between injections and to monitor column performance.
UPLC-MS analysis was performed on a Waters Acquity H-Class Ultra-Performance Liquid Chromatography (UPLC) System equipped with an Acquity UPLC BEH, […] 50×2.10 mm (Waters, UK) column and a photodiode array detector […], using Waters MassLynx software. The gradient system used for LC analysis consisted of 0.1% trifluoroacetic acid (TFA) in water as Solvent A, and 0.1% trifluoroacetic acid (TFA) in acetonitrile as Solvent B. TFA was purchased from Merck (UK), and diluted to the required concentration with UPLC grade water and acetonitrile for Solvent A and Solvent B, respectively. TFA was added to ensure acidic conditions throughout the analysis. A flow rate of 0.4 mL/min was used, and the detection wavelength was 254 nm. Mass spectrometry data were collected using a Waters SQ Detector 2 coupled to a Waters Acquity H Class UPLC and a Photo Diode Array Detector (ACQ-PDA). The Waters SQ Detector 2 parameters were set to: Capillary (kV), 3.00; Cone (V), 30; De-solvation Temperature (° C.), 600; Cone flow rate (L/h), 50; De-solvation flow rate (L/h), 600.
Gradient method used: from 95% A/5% B to 20% B over 5 min. Then from 20% B to 60% B over 35 min, followed by from 60% B to 85% B over 10 min. It was further changed from 85% B to 90% B over 5 min and kept for a further 5 min. Finally, from 90% B to 95% B over 2.5 min, and then to 20% B over 2.5 min. 10 μL was split via a zero-dead volume T-piece which passed into the mass spectrometer.
Compounds were provided in powder form and were dissolved in DMSO to achieve 5 mM stock solution. This solution was then diluted to 500 μM with 50% acetonitrile/50% water.
A number of commercially available ADC payloads and internal reference compounds were also incorporated into the analysis, and their structures are presented in Table 3.

JVM2 (Lymphoma) = assay: MTT in vitro cytotoxicity, 72 hour incubation; assay type: cell-based; details: Homo sapiens, JVM-2, MTT assay, JVM2 cells
Description: as §1, §2

Jurkat (Leukaemia) = assay: MTT in vitro cytotoxicity, 72 hour incubation; assay type: cell-based; details: Homo sapiens, MTT assay, Jurkat cells
Description: as §1, §2

SMILES: COc1cc2c(cc1OCCCCCC(=O)N1C[C@@H](CCl)c3c1cc(O)c1ccccc31)N=C[C@@H]1CC(c3ccsc3)=CCN1C2=O [Compound 96, (S)-3-((6-((S)-1-(Chloromethyl)-5-hydroxy-1,2-dihydro-3H-benzo[e]indol-3-yl)-6-oxohexyl)oxy)-2-methoxy-8-(thiophen-3-yl)-7,10-dihydrobenzo[e]pyrido[1,2-a][1,4]diazepin-12(6aH)-one]
- IC50 (RAJI (Lymphoma)): 0.0014 nM
- Retention Time (min) seco form [1]: 28.04 min and 28.08 min and 28.06 min
- Retention Time (min) spiro form [1]: 21.00 min and 21.02 min

SMILES: COc1cc2c(cc1OC[C@@H](O)CC(=O)N1C[C@@H](CCl)c3c1cc(O)c1ccccc31)N=C[C@@H]1CC(c3ccsc3)=CCN1C2=O [Compound 108, (S)-3-((S)-4-((S)-1-(Chloromethyl)-5-hydroxy-1,2-dihydro-3H-benzo[e]indol-3-yl)-2-hydroxy-4-oxobutoxy)-2-methoxy-8-(thiophen-3-yl)-7,10-dihydrobenzo[e]pyrido[1,2-a][1,4]diazepin-12(6aH)-one]
- IC50 (JVM2 (Lymphoma)): 0.0047 nM
- IC50 (RAJI (Lymphoma)): 0.01 nM
- IC50 (Jurkat (Leukaemia)): 0.014 nM
- Retention Time (min) seco form [1]: 22.54 min and 22.53 min
- Retention Time (min) spiro form [1]: 15.71 min and 15.69 min and 15.70 min

SMILES: CCc1c2c(nc3ccc(O)cc13)-c1cc3c(c(=O)n1C2)COC(=O)[C@]3(O)CC [SN38, reference compound]
- Retention Time (min) seco form, Average [1]: 7.13 min

SMILES: CNS(=O)(=O)c1ccc(C2=CCN3C(=O)c4cc(OC)c(OC[C@@H](O)CC(=O)N5C[C@@H](CCl)c6c5cc(O)c5ccccc65)cc4N=C[C@@H]3C2)cc1 [Compound 88, 4-((S)-3-((S)-4-((S)-1-(Chloromethyl)-5-hydroxy-1,2-dihydro-3H-benzo[e]indol-3-yl)-2-hydroxy-4-oxobutoxy)-2-methoxy-12-oxo-6a,7,10,12-tetrahydrobenzo[e]pyrido[1,2-a][1,4]diazepin-8-yl)-N-methylbenzenesulfonamide]
- IC50 (JVM2 (Lymphoma)): 0.49 nM
- IC50 (RAJI (Lymphoma)): 0.954 nM
- IC50 (Jurkat (Leukaemia)): 0.97 nM
- Retention Time (min) seco form [1]: 18.73 min and 18.70 min
- Retention Time (min) spiro form [1]: 12.47 min and 12.45 min

SMILES: COc1cc2c(cc1OCCOCCC(=O)N1C[C@@H](CCl)c3c1cc(O)c1ccccc31)N=C[C@@H]1CC(c3ccsc3)=CCN1C2=O [Compound 104, (S)-3-(2-(3-((S)-1-(Chloromethyl)-5-hydroxy-1,2-dihydro-3H-benzo[e]indol-3-yl)-3-oxopropoxy)ethoxy)-2-methoxy-8-(thiophen-3-yl)-7,10-dihydrobenzo[e]pyrido[1,2-a][1,4]diazepin-12(6aH)-one]
- IC50 (JVM2 (Lymphoma)): 0.0018 nM
- IC50 (RAJI (Lymphoma)): 0.0025 nM
- IC50 (Jurkat (Leukaemia)): 0.0095 nM
- Retention Time (min) seco form [1]: 24.10 min and 24.09 min
- Retention Time (min) spiro form [1]: 16.90 min and 16.93 min and 16.91 min

SMILES: COc1cc2cc(c1Cl)N(C)C(=O)C[C@](C)(OC(=O)[C@@H](C)N(C)C(=O)CCSC)[C@]1(C)O[C@H]1[C@H](C)[C@@H]1C[C@@](O)(NC(=O)O1)[C@H](OC)/C=C/C=C(\C)C2 [DM1, reference compound]
- Retention Time (min) seco form, Average [1]: 21.24 min

SMILES: CC[C@H](C)C[C@H](OC)[C@@H](C(=O)N1CCC[C@H]1[C@@H](CC(=O)N[C@H](C)[C@@H](O)c1ccccc1)OC)N(C)C(=O)[C@@H](NC(=O)[C@@H](NC)C(C)C)C(C)C [MMAE, reference compound]
- Retention Time (min) seco form, Average [1]: 12.04 min

SMILES: COc1cc2c(cc1OCCCCCOc1cc3c(cc1OC)C(=O)N1C=C(C)C[C@H]1C=N3)C=C[C@@H]1CC(C)=CN1C2=O [SG3199, reference compound]
- Retention Time (min) seco form, Average [1]: 12.02 min

SMILES: CNS(=O)(=O)c1ccc(C2=CCN3C(=O)c4cc(OC)c(OC[C@H](O)CC(=O)N5C[C@@H](CCl)c6c5cc(O)c5ccccc65)cc4N=C[C@@H]3C2)cc1 [Compound 92, 4-((S)-3-((R)-4-((S)-1-(Chloromethyl)-5-hydroxy-1,2-dihydro-3H-benzo[e]indol-3-yl)-2-hydroxy-4-oxobutoxy)-2-methoxy-12-oxo-6a,7,10,12-tetrahydrobenzo[e]pyrido[1,2-a][1,4]diazepin-8-yl)-N-methylbenzenesulfonamide]
- IC50 (JVM2 (Lymphoma)): 0.12 nM
- IC50 (RAJI (Lymphoma)): 0.41 nM
- IC50 (Jurkat (Leukaemia)): 0.55 nM
- Retention Time (min) seco form [1]: 18.82 min and 18.84 min
- Retention Time (min) spiro form [1]: 12.16 min and 12.18 min

SMILES: COc1cc2c(cc1OCCCC(=O)N1C[C@@H](CCl)c3c1cc(O)c1ccccc31)N=C[C@@H]1CC(c3ccsc3)=CCN1C2=O [Compound 100, (S)-3-(4-((S)-1-(Chloromethyl)-5-hydroxy-1,2-dihydro-3H-benzo[e]indol-3-yl)-4-oxobutoxy)-2-methoxy-8-(thiophen-3-yl)-7,10-dihydrobenzo[e]pyrido[1,2-a][1,4]diazepin-12(6aH)-one]
- IC50 (JVM2 (Lymphoma)): 0.001 nM
- Retention Time (min) seco form [1]: 25.24 min and 25.23 min
- Retention Time (min) spiro form [1]: 17.94 min and 17.89 min and 17.93 min

SMILES: COc1cc2c(cc1OCCCCCC(=O)N1C[C@@H](CCl)c3c1cc(O)c1ccccc31)N=C[C@@H]1CCCN1C2=O [C, reference compound]
- Retention Time (min) seco form [1]: 20.16 min and 20.15 min
- Retention Time (min) spiro form [1]: 12.49 min and 12.48 min and 12.45 min

SMILES: COc1cc2c(cc1OCCCCCC(=O)N1C[C@@H](CCl)c3c1cc(O)c1ccccc31)N=C[C@@H]1CCCCN1C2=O [A, reference compound]
- Retention Time (min) seco form [1]: 22.55 min and 22.56 min
- Retention Time (min) spiro form [1]: 14.85 min and 14.83 min and 14.84 min

SMILES: CNS(=O)(=O)c1ccc(C2=CCN3C(=O)c4cc(OC)c(OCCOCCC(=O)N5C[C@@H](CCl)c6c5cc(O)c5ccccc65)cc4N=C[C@@H]3C2)cc1 [Compound 76, 4-((S)-3-(2-(3-((S)-1-(Chloromethyl)-5-hydroxy-1,2-dihydro-3H-benzo[e]indol-3-yl)-3-oxopropoxy)ethoxy)-2-methoxy-12-oxo-6a,7,10,12-tetrahydrobenzo[e]pyrido[1,2-a][1,4]diazepin-8-yl)-N-methylbenzenesulfonamide]
- IC50 (JVM2 (Lymphoma)): 0.0138 nM
- IC50 (RAJI (Lymphoma)): 0.0172 nM
- IC50 (Jurkat (Leukaemia)): 0.0095 nM
- Retention Time (min) seco form [1]: 20.14 min
- Retention Time (min) spiro form [1]: 13.29 min and 13.28 min

SMILES: COc1cc2c(cc1OCc1cccc(CC(=O)N3C[C@@H](CCl)c4c3cc(OC(=O)N3CCN(C)CC3)c3ccccc43)c1)N=C[C@@H]1CCCCN1C2=O [D, reference compound]
- Retention Time (min) seco form, Average [1]: 17.03 min
- enhanced hydrophilicity (retention time) compared to the unsubstituted compound (B) ([1]; carbamate pro-drug D versus B): approximately 10 mins

SMILES: COc1cc2c(cc1OCc1cccc(CC(=O)N3C[C@@H](CCl)c4c3cc(O)c3ccccc43)c1)N=C[C@@H]1CCCCN1C2=O [B, reference compound]
- Retention Time (min) seco form [1]: 23.64 min and 23.65 min
- Retention Time (min) spiro form [1]: 16.10 min and 16.12 min and 16.09 min

SMILES: COc1cc2c(cc1OCc1cc(N)cc(COc3cc4c(cc3OC)C(=O)N3c5ccccc5C[C@H]3CN4)c1)N=C[C@@H]1Cc3ccccc3N1C2=O [DGN549, reference compound]
- Retention Time (min) seco form, Average [1]: 16.60 min

SMILES: COc1ccc(C2=CN3C(=O)c4cc(OC)c(OCCCOc5cc6c(cc5OC)C(=O)N5C=C(c7ccc(N)cc7)C[C@H]5C=N6)cc4N=C[C@@H]3C2)cc1 [SGD1882, reference compound]
- Retention Time (min) seco form, Average [1]: 12.55 min
